Where two headings read alike, the source gives them in different places.

Common to all, as to type: physicochemical
Data set [1] can be described thus: Photophysical properties and pKa of DAOTA dyes, fluorescence intensity at different pH, 6% DMSO in PBS buffer. Particulars: for pKa: 6% DMSO in PBS buffer solution, normalized fluorescence intensity at 588 nm at different pH, sigmoidal fits (FIG. 8). The source says:
FIG. 6. Absorption spectra of MR-68_DAOTA measured in 6% DMSO in PBS buffer solution. Circles (o) represent the absorption spectrum of the protonated form (measured at acidic conditions) and crosses (x) represent the absorption spectrum of the deprotonated form (measured at basic conditions).
FIG. 7. Emission spectra of MR-68_DAOTA measured in 6% DMSO in PBS buffer solution. Circles (o) represent the absorption spectrum of the protonated form (measured at acidic conditions) and crosses (x) represent the absorption spectrum of the deprotonated form (measured at basic conditions).
FIG. 8. […] The solid lines are sigmoidal fits to the experimental data.
(§1) Emission spectroscopy was performed in front-face set-up for sensor spot samples and in a conventional L-shape set-up for measuremetns in solution. A Perkin-Elmer LS50B and a Horiba Fluorolog 3 were used interchangeably. Intensity based sensor measurements were only performed on the LS50B platform. Fluorescence lifetime based sensor measurements were only performed on the Fluorolog 3. Absorption spectroscopy was performed on a Perkin Elmer Lambda1050, with integrating sphere (for sensor spots) and with a 3-detector module for solution samples.

Data set [2] can be described thus: Ratiometric emission of pH sensor spot with dyes bound into SOL-GEL-matrix at different pH. The settings on record: for pKa from ratiometric emission signal: with R1C. The method, then:
FIG. 9. Emission spectra of a pH sensor spot loaded with I1C (signal at ca. 590 nm) and R1C (signal at ca. 650 nm) covalently bound into the SOL-GEL-matrix recorded at different pH values (solid line: pH 2.48, circles: pH 6.26, crosses: 9.89).
as §1
The compounds according to 6 or 7 are mixed into either the ETEOS or the GPTMS gel component 1 h after mixing of the materials described. Subsequently, the ETEOS or the GPTMS gel components are mixed. The two components are then mixed in 1:1 molar ratio and left at a stirring table for no less than 3 days. The dyes 6 or 7 are added in an amount so that a final concentration of 0.1 mM of dye is obtained in the final GPTMS-ETEOS mixture. The resulting GPTMS-ETEOS-dye mixture is then deposited and cured at 110° C. for 3-4 hours.

The nature of data set [3]: Absorption and emission spectra, photophysical properties of pH-responsive triangulenium dyes in solution. Set-up: λmax (wavelength of maximum absorption) / λem (wavelength of maximum emission): unit not given here. The settings on record: for pKa / λem (wavelength of maximum emission) / λmax (wavelength of maximum absorption): in solution; for ϕfl- (φfl-off, fluorescence quantum yield, off-state): off-state (quenched); for ϕfl- (φfl-on, fluorescence quantum yield, on-state): on-state (not quenched). The method, then:
Absorption and emission spectrum of the prepared triangulenium compounds of Formula (I) were measured and their photophysical properties are compiled in table 2.
pKa is −log10 of the acid dissociation constant, Ka, and is a quantitative measure of the strength of an acid in solution. λmax denotes the wavelength wherein maximum absorption is obtained. λem denotes the wavelength wherein maximum emission is obtained. φfl-on and φfl-off are the fluorescence quantum yields, wherein the responsive fluorescent compounds are in their on-state (not quenched) and off-state (quenched), respectively. Ion/Ioff is the ratio between φfl-on and φfl-off.
All disclosed absorption and emission spectrum measurement shown herein are measured as follows:
as §1

The nature of data set [4]: Comparison of solution and sol-gel spectra and titration curves of 4g. Particulars: upon attaching to the matrix material. From the text: The arrow indicates the change from pH˜11 to pH˜1.
Data set [5] can be described thus: Readout and chemical stability of optical sensor of DMQA+ and 4g in ORMOSIL matrix. The method, then:
In order to validate the sensor performance, different stability tests were performed. One critical parameter for an optical sensor is known to be the read-out stability. Another critical parameter for optical sensors is the chemical stability.

Setting [6] is: first value of cell, protonated form.
Where [7] appears, read: second value of cell, deprotonated form.
The mark [8] stands for this setting: covalently bound into the SOL-GEL-matrix.

`CN1c2cccc3c2C2c4c(cccc4N(c4cccc(O)c4)c4cccc1c42)O3` (stereo not drawn): in data set [1], the “η, quenching efficiency of the fluorescence intensity” value (“η, quenching efficiency” below) is recorded as 99% and the pKa stood at 8.5. For the same compound, in data set [1] (setting [6]), the “εmax, molar absorption coefficient” value came to 13600 M⁻¹ cm⁻¹; the “λ max, wavelength at the maximum fluorescence intensity” value (“λ max, wavelength” below) was 590/590 nm; the “λabs max, wavelength at maximum absorption of the lowest energy transition” value (from here on “λabs max, wavelength”) is 554 nm. Further, in data set [1] (setting [7]), the “εmax, molar absorption coefficient” value stood at 13500 M⁻¹ cm⁻¹; the “λ max, wavelength” value was 590/590 nm; the “λabs max, wavelength” value is recorded as 559 nm.

“8-(1-methyl-1-propyl-3-(3-(triethoxysilyl)propyl)urea)-4,8-diazatriangulenium-4-(4-(methylsulfonyl)phenolate) [Compound I2C]”: the “pKa from ratiometric emission signal” value in data set [2] (setting [8]) was determined as 5.4.

With “8-(1-methyl-1-propyl-3-(3-(triethoxysilyl)propyl)urea)-4,8-diazatriangulenium-4-(4-(trifluoromethyl)phenolate) [Compound I1C]”, in data set [2] (pH sensor spot, covalently bound into the SOL-GEL-matrix), the emission signal result was “ca. 590 nm”. Moreover, the “pKa from ratiometric emission signal” value in data set [2] (setting [8]) turned out to be 6.3.

As to `Oc1ccccc1N1c2cccc3c2C2c4c(cccc4Oc4cccc1c42)O3` [Compound 3b, N-(2-hydroxyphenyl)-azadioxatriangulenium tetrafluoroborat], in data set [3], the “Ion/Io (Ion/Ioff, ratio between φfl-on and φfl-off)” value is given as approximately 50; the pKa came to 6.9; the “λem (wavelength of maximum emission)” value was 558; the “λmax (wavelength of maximum absorption)” value turned out to be 541. For the same compound, in data set [3], the “ϕfl- (φfl-off, fluorescence quantum yield, off-state)” value was more than 0.5% and the “ϕfl- (φfl-on, fluorescence quantum yield, on-state)” value is recorded as 8%.

As for `Oc1cccc(N2c3cccc4c3C3c5c(cccc5Oc5cccc2c53)O4)c1` [Compound 3c, N-(3-hydroxyphenyl)-azadioxatriangulenium tetrafluoroborat], in data set [3], the “Ion/Io (Ion/Ioff, ratio between φfl-on and φfl-off)” value was approximately 50; the pKa is 7.3; the “λem (wavelength of maximum emission)” value amounted to 558; the “λmax (wavelength of maximum absorption)” value is 540. Also, in data set [3], the “ϕfl- (φfl-off, fluorescence quantum yield, off-state)” value is more than 0.5% and the “ϕfl- (φfl-on, fluorescence quantum yield, on-state)” value is 8%.

Consider `Oc1ccc(N2c3cccc4c3C3c5c(cccc5Oc5cccc2c53)O4)cc1` [Compound 3d], for which, in data set [3], the “Ion/Io (Ion/Ioff, ratio between φfl-on and φfl-off)” value is approximately 50; the pKa came out at 8.3; the “λem (wavelength of maximum emission)” value amounted to 563; the “λmax (wavelength of maximum absorption)” value is on record as 540. In data set [3], the “ϕfl- (φfl-off, fluorescence quantum yield, off-state)” value is recorded as more than 0.5% and the “ϕfl- (φfl-on, fluorescence quantum yield, on-state)” value is reported as 2%.

For the compound `CCCCCCCCCCCCN1c2cccc3c2C2c4c(cccc4N(c4cc(F)ccc4O)c4cccc1c42)O3` (stereo not drawn) [Compound 4f, 4-dodecyl-8-(5-fluoro-2-hydroxyphenyl)-4,8-diaza-12-oxa-4,8,12,12c-tetrahydro-dibenzo[cd,mn]-pyrenylium], in data set [3], the “λem (wavelength of maximum emission)” value was 590 and the “λmax (wavelength of maximum absorption)” value is recorded as 557.

For `CCCCCCCCCCCCN1c2cccc3c2C2c4c(cccc4N(c4cc(S(C)(=O)=O)ccc4O)c4cccc1c42)O3` (stereo not drawn) [Compound 4g, 4-dodecyl-8-(2-hydroxy-5-(methylsulfonyl)phenyl)-4,8-diaza-12-oxa-4,8,12,12c-tetrahydro-dibenzo[cd,mn]-pyrenylium], the “spectral change and pH response, solution versus sol-gel” value in data set [4] is listed as “spectral change is minimal while the response to changing pH is maintained”. For the same compound, in data set [3], the “Ion/Io (Ion/Ioff, ratio between φfl-on and φfl-off)” value is on record as approximately 100; the pKa is 3.4; the “λem (wavelength of maximum emission)” value amounted to 590; the “λmax (wavelength of maximum absorption)” value is reported as 557. Further, in data set [3], the “ϕfl- (φfl-off, fluorescence quantum yield, off-state)” value is reported as 6% and the “ϕfl- (φfl-on, fluorescence quantum yield, on-state)” value is listed as 26%. For the same compound, the “responsiveness of ratiometric readout signal” value in data set [5] (constant illumination, low and high pH) is “maintains its responsiveness”. Besides, the “ratiometric readout signal stable for” value in data set [5] (high and low pH) is recorded as “at least 16 hours”.

In the case of `CCCCCCCCCCCCn1c2cccc3oc4cccc5c4[c+](c32)c2c1cccc2n5-c1cc(C(F)(F)F)ccc1O` [Compound 4h, N-(2-hydroxy-5-(trifluoromethyI)phenyl)-N-dodecyl-diazaoxatriangulenium hexafluorophosphat], in data set [3], the “Ion/Io (Ion/Ioff, ratio between φfl-on and φfl-off)” value is approximately 50; the pKa stood at 6.5; the “λem (wavelength of maximum emission)” value worked out at 590; the “λmax (wavelength of maximum absorption)” value is 557.

Consider `CCO[Si](CCCNC(=O)N(C)CCCn1c2cccc(OC)c2[c+]2c3c(OC)cccc3n(CCCN(C)C(=O)NCCC[Si](OCC)(OCC)OCC)c3cccc1c32)(OCC)OCC` [Compound R1C, 5,9-bis(4,4-diethoxy-10-methyl-9-oxo-3-oxa-8,10-diaza-4-silatridecan-13-yl)-1,13-dimethoxy-5,9-dihydro-13bH-quinolino[2,3,4-kl]acridin-13b-ylium hexafluorophosphate], for which the emission signal entry in data set [2] is given as “ca. 650 nm”.

For the compound `CN1c2cccc3c2C2c4c(cccc4N(c4cc(C(F)(F)F)ccc4O)c4cccc1c42)O3` (stereo not drawn) [MR-66_DAOTA], in data set [1], the “η, quenching efficiency” value is listed as more than 99% and the pKa came out at 6.2. Further, in data set [1] (setting [6]), the “εmax, molar absorption coefficient” value was 16600/16600 M^−1cm^−1; the “λ max, wavelength” value stood at 585 nm; the “λabs max, wavelength” value amounted to 553 nm. Besides, in data set [1] (setting [7]), the “εmax, molar absorption coefficient” value is 16600/16600 M^−1cm^−1; the “λ max, wavelength” value is on record as 588 nm; the “λabs max, wavelength” value is recorded as 558 nm.

In the case of `CN1c2cccc3c2C2c4c(cccc4N(c4cc(O)cc(C(F)(F)F)c4)c4cccc1c42)O3` (stereo not drawn) [MR-67.1_DAOTA], in data set [1], the “η, quenching efficiency” value is recorded as 99% and the pKa worked out at 7.3. Further, in data set [1] (setting [6]), the “εmax, molar absorption coefficient” value stood at 14700 M⁻¹ cm⁻¹; the “λ max, wavelength” value was determined as 586 nm; the “λabs max, wavelength” value is given as 553 nm. Further, in data set [1] (setting [7]), the “εmax, molar absorption coefficient” value stood at 14300 M⁻¹ cm⁻¹; the “λ max, wavelength” value stood at 588 nm; the “λabs max, wavelength” value is listed as 557 nm.

With `CN1c2cccc3c2C2c4c(cccc4N(c4ccc(O)cc4)c4cccc1c42)O3` (stereo not drawn) [MR-93_DAOTA], in data set [1], the “η, quenching efficiency” value was more than 99% and the pKa was 8.6. Further, in data set [1] (setting [6]), the “εmax, molar absorption coefficient” value was determined as 14400 M⁻¹ cm⁻¹; the “λ max, wavelength” value is on record as 591/591 nm; the “λabs max, wavelength” value is 555 nm. Further, in data set [1] (setting [7]), the “εmax, molar absorption coefficient” value is 14100 M⁻¹ cm⁻¹; the “λ max, wavelength” value is 591/591 nm; the “λabs max, wavelength” value is reported as 560 nm.
